Reference: US20260240869A1, “ANTIPSEUDOMONAL FUSIDIC ACID COMPOUNDS” (priority 2022, published 2026)
In brackets after ≈: the same amount, converted by molar mass. Where two headings read alike, the source gives them in different places.

Experiments:
E. coli MG1655 [1] = test: MIC, E. coli MG1655; format: cell-based; settings: Escherichia coli
Protocol: (§1) Antimicrobial Susceptibility Tests. Susceptibility testing was performed in biological triplicate, using the microdilution broth method as outlined by the Clinical and Laboratory Standards Institute. Bacteria were cultured with cation-adjusted Meuller-Hinton broth (Sigma-Aldrich; catalogue number: 90922) or Luria-Bertani (LB) broth (Lennox) in round-bottom 96-well plates (Corning; catalogue number: 3788).

E. coli MG1655 [2] = test: LC-MS/MS whole-cell accumulation assay, E. coli MG1655; format: cell-based; settings: E. coli MG1655; accumulation of FA reported (Table 8)
Protocol: Accumulation Assay. The accumulation assay was performed in triplicate in batches of ten samples, with each batch containing tetracycline or ciprofloxacin as a positive control. P. aeruginosa PAO1, PAO1 A6, PA14, PA14 A40, and PA1280, and E. coli MG1655 were used in these experiments. For each replicate, 2.5 mL (E. coli) or 5 mL (P. aeruginosa) of an overnight culture was diluted into 250 mL of fresh Luria-Bertani broth (Lennox) or Tryptic Soy Broth (TSB) and grown at 37° C. with shaking to an optical density (OD600) of 0.55-0.60. The bacteria were pelleted at 3220 r.c.f. for 10 min at 4° C., and the supernatant was discarded. The pellets were resuspended in 40 mL of phosphate buffered saline (PBS) and pelleted as before, and the supernatant was discarded. The pellets were resuspended in 8.8 mL of fresh PBS and aliquoted into ten, 1.5 mL Eppendorf tubes (875 μL each). The number of colony-forming units (CFUs) was determined by a calibration curve. The samples were equilibrated at 37° C. with shaking for 5 min; compound was added (final concentration=50 μM), and then the samples were incubated at 37° C. with shaking for either 10 min. These time points were short enough to minimize metabolic and growth changes (no changes in OD600 or CFU count observed). After incubation, 800 μL of the cultures was carefully layered on 700 μL of silicone oil (9:1 AR20/Sigma High Temperature, cooled to −78° C.). Bacteria were pelleted through the oil by centrifuging at 13 000 r.c.f. for 2 min at room temperature (with the supernatant remaining above the oil); the supernatant and oil were then removed by pipetting. To lyse the samples, each pellet was dissolved in […] of water, and then, they were subjected to three (E. coli) or four (P. aeruginosa) freeze-thaw cycles of 3 min in liquid nitrogen followed by 3 min in a water bath at 65° C. P. aeruginosa samples were then treated with 50 µM DNase and RNase and incubated at 37° C. for 15 minutes. The lysates were pelleted at 13 000 r.c.f. for 2 min at room temperature, and the supernatant was collected ([…]). The debris was resuspended in 100 μL of methanol and pelleted as before. The supernatants were removed and combined with the previous supernatants collected. Finally, the remaining debris was removed by centrifuging at 20 000 r.c.f. for 10 min at room temperature. Supernatants were analyzed by LC-MS/MS.
Samples were analyzed with the 5500 QTRAP LC/MS/MS system (AB Sciex) with a 1200 series HPLC system (Agilent Technologies) including a degasser, an autosampler, and a binary pump. Liquid chromatography separation was performed on an Agilent SB-Aq column (4.6×50 mm, 5 μm) (Agilent Technologies) with mobile phase A (0.1% formic acid in water) and mobile phase B (0.1% formic acid in acetonitrile). The flow rate was 0.3 mL/min. The linear gradient was as follows: 0-3 min, 100% mobile phase A; 10-15 min, 2% mobile phase A; 15.5-21 min, 100% mobile phase A. The autosampler was set at 5° C. The injection volume was 15 μL. Mass spectra were acquired with both positive electrospray ionization at the ion spray voltage of 5500 V and negative electrospray ionization at the ion spray voltage of −4500 V. The source temperature was 450° C. The curtain gas, ion source gas 1, and ion source gas 2 were 33, 50, and 65, respectively. Multiple reaction monitoring was used to quantify the metabolites. Power analysis was not used to determine the number of replicates. Error bars represent the standard error of the mean of three biological replicates. The statistical significance of the accumulation was determined using a two sample Welch's t test (one-tailed test, assuming unequal variance) relative to the negative controls. All compounds evaluated in the biological assays were >95% pure.

[3] = Hydrolysis of prodrug in CAMH; format: physicochemical; settings: In CAMH at 37° C.
Description: As a result, amidoxime prodrug versions containing variable amine linkers were designed (Table 8).

[4] = system: hyperporinated P. aeruginosa A6 efflux deficient strain (PAO1 pore-A6); test: microbe, parasite or virus in culture; format: cell-based; settings: Pseudomonas aeruginosa, PAO1, read-out: MIC against PAO1 pore-A6
Protocol: as §1

Row | SMILES | MIC (E. coli MG1655 [1]; MG1655, read-out: E. coli MG1655 MIC) [µg/mL] | MIC (E. coli MG1655 [1]; MG1655, read-out: MIC E. coli MG1655) [µg/mL] | EC Accumulation (FA) (E. coli MG1655 [2]) [nmol/1012 CFUs] | period of hydrolysis to fusidic acid [3] [h] | MIC [4] [µg/mL] | MIC (E. coli MG1655 [1]; MG1655, CLSI (Table 8), read-out: E. coli MG1655 MIC) [µg/mL] | MIC (E. coli MG1655 [1]; MG1655, Table 9, read-out: MIC E. coli MG1655) [µg/mL]
1 | CC(=O)O[C@H]1C[C@@]2(C)[C@@H](C[C@@H](O)[C@H]3[C@@]4(C)CC[C@@H](O)[C@@H](C)[C@@H]4CC[C@@]32C)/C1=C(\CCC=C(C)C)C(=O)O/N=C(\N)CNCCCNCCCNCCCN [FA prodrug, (3R, 4S,5S,8S,9S,10S,11R,13R,14S,16S,Z)-17-((Z)-1,14-diamino-22-methyl-17-oxo-16-oxa-4,8,12,15-tetraazatricosa-14,21-dien-18-ylidene)-3,11-dihydroxy-4,8,10,14-tetramethylhexadecahydro-1H-cyclopenta[a]phenanthren-16-yl acetate] | 4 | 4 | 3337 ± 175 | 48 |  |  | 
2 | CC(=O)O[C@H]1C[C@@]2(C)[C@@H](C[C@@H](O)[C@H]3[C@@]4(C)CC[C@@H](O)[C@@H](C)[C@@H]4CC[C@@]32C)/C1=C(\CCC=C(C)C)C(=O)O [FA, Fusidic acid] |  |  | 52 ± 5 |  | 4 (≈ 7.74 µM) | 512 (≈ 991 µM) | 512 (≈ 991 µM)
